Assay results published in ChEMBL document CHEMBL5357036, “Latest developments in coumarin-based anticancer agents: mechanism of action and structure-activity relationship studies” (RSC Med Chem, 2024).

Experiments:
HT-29 [1] = test: Cytotoxicity against human HT-29 cells assessed as reduction in cell viability by MTT assay; assay type: functional, cell-based
MCF7 = test: cells; details: Homo sapiens, MCF7, 48 h
Description: Anticancer activity against human MCF7 cells assessed as inhibition of cell growth incubated for 48 hrs by SRB assay

MDA-MB-231 [2] = test: Antiproliferative activity against human MDA-MB-231 cells assessed as reduction in cell viability measured after 72 hrs under hypoxia condition by MTT assay; assay type: functional, cell-based; details: MDA-MB-231, 72 h
MDA-MB-231 [3] = test: Cytotoxicity against human MDA-MB-231 cells assessed as cell growth inhibition measured after 48 hrs by SRB assay; assay type: functional, cell-based; details: MDA-MB-231, 48 h
HCT-116 [4] = test: Cytotoxicity against human HCT-116 cells assessed as reduction in cell viability incubated for 96 hrs by MTT assay; assay type: functional, cell-based; details: HCT-116, 96 h
HT-29 [5] = test: Cytotoxicity against human HT-29 cells assessed as reduction in cell viability incubated for 48 hrs by SRB assay; assay type: functional, cell-based; details: HT-29, 48 h
HCT-116 [6] = test: Cytotoxicity against human HCT-116 cells assessed as reduction in cell viability incubated for 48 hrs by SRB assay; assay type: functional, cell-based; details: HCT-116, 48 h
MDA-MB-231 [7] = test: Antiproliferative activity against human MDA-MB-231 cells assessed as cell growth inhibition incubated for 96 hrs by MTT assay; assay type: functional, cell-based; details: MDA-MB-231, 96 h
T47D = test: Anticancer activity against human T47D cells assessed as cell growth inhibition; assay type: functional, cell-based

Cc1c(Cl)c(=O)oc2cc(OCCn3cc(CO[C@H]4O[C@@H]5O[C@@]6(C)CC[C@H]7[C@H](C)CC[C@@H]([C@H]4C)[C@@]57OO6)nn3)ccc12
IC50 (HT-29 [1]): 50 nM

Cc1ccc(/N=N/c2sc(N3N=C(c4c(O)c5ccccc5oc4=O)CC3c3ccc(N(C)C)cc3)nc2-c2ccccc2)cc1 (centres undefined)
IC50 (MCF7): 5410 nM

COC(=O)c1cccc(NC(=O)c2ccc(-n3cc(COc4cc(=O)oc5ccccc45)nn3)cc2)c1
IC50 (MDA-MB-231 [2]): 250 nM

Cc1ccc2c(Cn3cc(CO[C@H]4O[C@@H]5O[C@@]6(C)CC[C@H]7[C@H](C)CC[C@@H]([C@H]4C)[C@@]57OO6)nn3)cc(=O)oc2c1
IC50 (MDA-MB-231 [3]): > 100000 nM

Cc1cc(C)c2c(Cn3cc(CO[C@H]4O[C@@H]5O[C@@]6(C)CC[C@H]7[C@H](C)CC[C@@H]([C@H]4C)[C@@]57OO6)nn3)cc(=O)oc2c1
IC50 (MDA-MB-231 [3]): > 100000 nM

CN(C)c1ccc(C2CC(c3cc4ccccc4oc3=O)=NN2c2nc(-c3ccccc3)c(/N=N/c3ccc(Cl)cc3)s2)cc1 (centres undefined)
IC50 (MCF7): 5410 nM

C[C@H]1[C@@H](OCc2cn(Cc3cc(=O)oc4cc(O)ccc34)nn2)O[C@@H]2O[C@@]3(C)CC[C@H]4[C@H](C)CC[C@@H]1[C@@]24OO3
IC50 (MDA-MB-231 [3]): > 100000 nM

Cc1ccc2oc(=O)cc(Cn3cc(CO[C@H]4O[C@@H]5O[C@@]6(C)CC[C@H]7[C@H](C)CC[C@@H]([C@H]4C)[C@@]57OO6)nn3)c2c1
IC50 (MDA-MB-231 [3]): > 100000 nM

CN(C)c1ccc(C2CC(c3c(O)c4ccccc4oc3=O)=NN2c2nc(-c3ccccc3)c(/N=N/c3ccc(Cl)cc3)s2)cc1 (centres undefined)
IC50 (MCF7): 5410 nM

Cc1c(C)c2ccc(OCCn3cc(CO[C@H]4O[C@@H]5O[C@@]6(C)CC[C@H]7[C@H](C)CC[C@@H]([C@H]4C)[C@@]57OO6)nn3)cc2oc1=O
IC50 (HT-29 [1]): 50 nM

CCOC(=O)c1cc2ccc(OCCn3cc(CO[C@H]4O[C@@H]5O[C@@]6(C)CC[C@H]7[C@H](C)CC[C@@H]([C@H]4C)[C@@]57OO6)nn3)cc2oc1=O
IC50 (HT-29 [1]): 50 nM

C[C@H]1[C@@H](OCc2cn(CCOc3ccc4c(C(F)(F)F)cc(=O)oc4c3)nn2)O[C@@H]2O[C@@]3(C)CC[C@H]4[C@H](C)CC[C@@H]1[C@@]24OO3
IC50 (HT-29 [1]): 50 nM

CCOC(=O)c1cc2ccc(OCCCn3cc(CO[C@H]4O[C@@H]5O[C@@]6(C)CC[C@H]7[C@H](C)CC[C@@H]([C@H]4C)[C@@]57OO6)nn3)cc2oc1=O
IC50 (HT-29 [1]): 1220 nM

Cc1c(Cl)c(=O)oc2cc(OCCCn3cc(CO[C@H]4O[C@@H]5O[C@@]6(C)CC[C@H]7[C@H](C)CC[C@@H]([C@H]4C)[C@@]57OO6)nn3)ccc12
IC50 (HT-29 [1]): 1220 nM

Cc1cc(=O)oc2cc(OCCn3cc(CO[C@H]4O[C@@H]5O[C@@]6(C)CC[C@H]7[C@H](C)CC[C@@H]([C@H]4C)[C@@]57OO6)nn3)ccc12
IC50 (HT-29 [1]): 50 nM

Cc1cc(=O)oc2cc(OCCCn3cc(CO[C@H]4O[C@@H]5O[C@@]6(C)CC[C@H]7[C@H](C)CC[C@@H]([C@H]4C)[C@@]57OO6)nn3)ccc12
IC50 (HT-29 [1]): 1220 nM

Cc1c(C)c2ccc(OCCCn3cc(CO[C@H]4O[C@@H]5O[C@@]6(C)CC[C@H]7[C@H](C)CC[C@@H]([C@H]4C)[C@@]57OO6)nn3)cc2oc1=O
IC50 (HT-29 [1]): 1220 nM

C[C@H]1[C@@H](OCc2cn(CCCOc3ccc4c(C(F)(F)F)cc(=O)oc4c3)nn2)O[C@@H]2O[C@@]3(C)CC[C@H]4[C@H](C)CC[C@@H]1[C@@]24OO3
IC50 (HT-29 [1]): 1220 nM

C[C@H]1[C@@H](OCCCc2cn(COc3ccc4c(C(F)(F)F)cc(=O)oc4c3)nn2)O[C@@H]2O[C@@]3(C)CC[C@H]4[C@H](C)CC[C@@H]1[C@@]24OO3
IC50 (HT-29 [1]): > 100000 nM

Cc1cccc2c(OCn3cc(CCO[C@H]4O[C@@H]5O[C@@]6(C)CC[C@H]7[C@H](C)CC[C@@H]([C@H]4C)[C@@]57OO6)nn3)cc(=O)oc12
IC50 (HCT-116 [4]): > 100000 nM

CC1SC(N2N=C(c3cc4ccccc4oc3=O)CC2c2ccc(N(C)C)cc2)=NC1=O (centres undefined)
IC50 (MCF7): 5410 nM

CCCc1cc(=O)oc2cc(Nc3nc(-c4ccc(Cl)cc4)cs3)ccc12
IC50 (HT-29 [5]): 250 nM
IC50 (HCT-116 [6]): 250 nM

CCOC(=O)c1cc2ccc(OCn3cc(CCCO[C@H]4O[C@@H]5O[C@@]6(C)CC[C@H]7[C@H](C)CC[C@@H]([C@H]4C)[C@@]57OO6)nn3)cc2oc1=O
IC50 (HT-29 [1]): > 100000 nM

Cc1ccc2oc(=O)cc(OCn3cc(CCCO[C@H]4O[C@@H]5O[C@@]6(C)CC[C@H]7[C@H](C)CC[C@@H]([C@H]4C)[C@@]57OO6)nn3)c2c1
IC50 (HCT-116 [4]): 39 nM
IC50 (MDA-MB-231 [7]): 39 nM

Cc1cc(=O)oc2cc(Nc3nc(-c4ccc(Br)cc4)cs3)ccc12
IC50 (HT-29 [5]): 250 nM
IC50 (HCT-116 [6]): 250 nM

CCCc1cc(=O)oc2cc(Nc3nc(-c4ccc(Br)cc4)cs3)ccc12
IC50 (HT-29 [5]): 250 nM
IC50 (HCT-116 [6]): 260 nM

C[C@H]1[C@@H](OCCc2cn(Cc3cc(=O)oc4cc(O)ccc34)nn2)O[C@@H]2O[C@@]3(C)CC[C@H]4[C@H](C)CC[C@@H]1[C@@]24OO3
IC50 (MDA-MB-231 [3]): > 100000 nM

C[C@H]1[C@@H](OCCc2cn(COc3cc(=O)oc4ccccc34)nn2)O[C@@H]2O[C@@]3(C)CC[C@H]4[C@H](C)CC[C@@H]1[C@@]24OO3
IC50 (HCT-116 [4]): > 100000 nM

Cc1cccc2c(OCn3cc(CCCO[C@H]4O[C@@H]5O[C@@]6(C)CC[C@H]7[C@H](C)CC[C@@H]([C@H]4C)[C@@]57OO6)nn3)cc(=O)oc12
IC50 (HCT-116 [4]): 39 nM
IC50 (MDA-MB-231 [7]): 39 nM

Cc1cc(=O)oc2cc(Nc3nc(-c4ccc(Cl)cc4)cs3)ccc12
IC50 (HT-29 [5]): 250 nM
IC50 (HCT-116 [6]): 250 nM

COc1ccccc1-c1csc(Nc2ccc3c(C)cc(=O)oc3c2)n1
IC50 (HT-29 [5]): 250 nM
IC50 (HCT-116 [6]): 250 nM

Cc1ccc2c(OCn3cc(CCCO[C@H]4O[C@@H]5O[C@@]6(C)CC[C@H]7[C@H](C)CC[C@@H]([C@H]4C)[C@@]57OO6)nn3)cc(=O)oc2c1C
IC50 (HCT-116 [4]): 39 nM
IC50 (MDA-MB-231 [7]): 39 nM

Cc1c(Cl)c(=O)oc2cc(OCn3cc(CCCO[C@H]4O[C@@H]5O[C@@]6(C)CC[C@H]7[C@H](C)CC[C@@H]([C@H]4C)[C@@]57OO6)nn3)ccc12
IC50 (HT-29 [1]): > 100000 nM

Cc1ccc2c(Cn3cc(CCO[C@H]4O[C@@H]5O[C@@]6(C)CC[C@H]7[C@H](C)CC[C@@H]([C@H]4C)[C@@]57OO6)nn3)cc(=O)oc2c1
IC50 (MDA-MB-231 [3]): > 100000 nM

Cc1nc(N2N=C(c3cc4ccccc4oc3=O)CC2c2ccc(N(C)C)cc2)sc1/N=N/c1ccc(Cl)cc1 (centres undefined)
IC50 (MCF7): 5410 nM

Cc1ccc2c(OCn3cc(CCO[C@H]4O[C@@H]5O[C@@]6(C)CC[C@H]7[C@H](C)CC[C@@H]([C@H]4C)[C@@]57OO6)nn3)cc(=O)oc2c1C
IC50 (HCT-116 [4]): > 100000 nM

Cc1cc(=O)oc2cc(OCn3cc(CCCO[C@H]4O[C@@H]5O[C@@]6(C)CC[C@H]7[C@H](C)CC[C@@H]([C@H]4C)[C@@]57OO6)nn3)ccc12
IC50 (HT-29 [1]): > 100000 nM

C[C@H]1[C@@H](OCCCc2cn(COc3cc(=O)oc4ccccc34)nn2)O[C@@H]2O[C@@]3(C)CC[C@H]4[C@H](C)CC[C@@H]1[C@@]24OO3
IC50 (HCT-116 [4]): 39 nM
IC50 (MDA-MB-231 [7]): 39 nM

Cc1cc(C)c2c(OCn3cc(CCO[C@H]4O[C@@H]5O[C@@]6(C)CC[C@H]7[C@H](C)CC[C@@H]([C@H]4C)[C@@]57OO6)nn3)cc(=O)oc2c1
IC50 (HCT-116 [4]): > 100000 nM

Cc1ccc2oc(=O)cc(Cn3cc(CCO[C@H]4O[C@@H]5O[C@@]6(C)CC[C@H]7[C@H](C)CC[C@@H]([C@H]4C)[C@@]57OO6)nn3)c2c1
IC50 (MDA-MB-231 [3]): > 100000 nM

Cc1cc(C)c2oc(=O)cc(OCn3cc(CCCO[C@H]4O[C@@H]5O[C@@]6(C)CC[C@H]7[C@H](C)CC[C@@H]([C@H]4C)[C@@]57OO6)nn3)c2c1
IC50 (HCT-116 [4]): 39 nM
IC50 (MDA-MB-231 [7]): 39 nM

Cc1cc(C)c2c(Cn3cc(CCO[C@H]4O[C@@H]5O[C@@]6(C)CC[C@H]7[C@H](C)CC[C@@H]([C@H]4C)[C@@]57OO6)nn3)cc(=O)oc2c1
IC50 (MDA-MB-231 [3]): > 100000 nM

Cc1c(C)c2ccc(OCn3cc(CCO[C@H]4O[C@@H]5O[C@@]6(C)CC[C@H]7[C@H](C)CC[C@@H]([C@H]4C)[C@@]57OO6)nn3)cc2oc1=O
IC50 (HT-29 [1]): 2460 nM

CCOC(=O)c1cc2ccc(OCn3cc(CCO[C@H]4O[C@@H]5O[C@@]6(C)CC[C@H]7[C@H](C)CC[C@@H]([C@H]4C)[C@@]57OO6)nn3)cc2oc1=O
IC50 (HT-29 [1]): 2460 nM

Cc1cc(=O)oc2cc(OCn3cc(CCO[C@H]4O[C@@H]5O[C@@]6(C)CC[C@H]7[C@H](C)CC[C@@H]([C@H]4C)[C@@]57OO6)nn3)ccc12
IC50 (HT-29 [1]): 2460 nM

Cc1cc(C)c2oc(=O)cc(OCn3cc(CCO[C@H]4O[C@@H]5O[C@@]6(C)CC[C@H]7[C@H](C)CC[C@@H]([C@H]4C)[C@@]57OO6)nn3)c2c1
IC50 (HCT-116 [4]): > 100000 nM

Cc1c(C)c2ccc(OCn3cc(CCCO[C@H]4O[C@@H]5O[C@@]6(C)CC[C@H]7[C@H](C)CC[C@@H]([C@H]4C)[C@@]57OO6)nn3)cc2oc1=O
IC50 (HT-29 [1]): > 100000 nM

Cc1cc(C)c2c(OCn3cc(CCCO[C@H]4O[C@@H]5O[C@@]6(C)CC[C@H]7[C@H](C)CC[C@@H]([C@H]4C)[C@@]57OO6)nn3)cc(=O)oc2c1
IC50 (HCT-116 [4]): 39 nM
IC50 (MDA-MB-231 [7]): 39 nM

Cc1ccc2c(OCn3cc(CCCO[C@H]4O[C@@H]5O[C@@]6(C)CC[C@H]7[C@H](C)CC[C@@H]([C@H]4C)[C@@]57OO6)nn3)cc(=O)oc2c1
IC50 (HCT-116 [4]): 39 nM
IC50 (MDA-MB-231 [7]): 39 nM

O=C(/C=C/c1ccc(N2CCOCC2)cc1)c1cc2ccccc2oc1=O
IC50 (T47D): 900 nM

Cc1c(Cl)c(=O)oc2cc(OCn3cc(CCO[C@H]4O[C@@H]5O[C@@]6(C)CC[C@H]7[C@H](C)CC[C@@H]([C@H]4C)[C@@]57OO6)nn3)ccc12
IC50 (HT-29 [1]): 2460 nM

C[C@H]1[C@@H](OCCc2cn(COc3ccc4c(C(F)(F)F)cc(=O)oc4c3)nn2)O[C@@H]2O[C@@]3(C)CC[C@H]4[C@H](C)CC[C@@H]1[C@@]24OO3
IC50 (HT-29 [1]): 2460 nM
